# Test results reported in patent US10196357B2, “Biaryl compositions and methods for modulating a kinase cascade” (Athenex, Inc., priority 2007, dated 2019).
# Values joined by “and” are separate entries in the source; they are usually repeats but may differ in a detail not shown here. Equal values may be shown once. Read-outs that look alike come from different tables or passages of the source.
# Columns and labels:
# MDA231 (Breast) = test: growth inhibition (BrdU), MDA231; assay type: cell-based, Human; conditions: Homo sapiens, MDA-MB-231, MDA-MB-321, BrdU, T=72
# Text: (§1) Growth Inhibition. […] T1 values≤T0 values were designated as T, cytotoxicity.
# [1] = brain exposure after oral administration; assay type: in vivo, male CD-1 mice; conditions: for AUClast / Cmax / Tmax: Brain; for Kp: brain and plasma, read-out: AUClast Brain/AUClast Plasma Ratio
# Procedure: Plasma concentrations were measured in mice after oral administration. All doses were formulated in purified water. Four groups of male CD-1 mice were dosed after an overnight fast and fed 4 hours post-dose. Dosing was as follows:
# Protein was precipitated with 0.25 mL acetonitrile for plasma, 0.25 mL for brain. After centrifugation, supernatant was directly injected into an LC/MS system. The limit of quantitation was 1 ng/mL using a 50 μL aliquot for plasma and a 50 μL, aliquot for brain. The standard curve was 1 to 1,000 ng/mL for both plasma and brain. HPLC conditions were as follows:
# HPLC System: Shimadzu SCL-10 System
# • Analytical Column: Aquasil C18 5 μm 100×2 mm column. • Column Temperature: Ambient temperature • Autosampler Temperature: Ambient temperature • Mobile Phase A) 10 mM Ammonium formate in water (pH 4). • B) Acetonitrile. • Flow Rate: 0.6 mL/min • Injection Volume: 2 μL • Gradient:
# • Mass Spectrometry Conditions were as follows: • Instrument: ABI Sciex API 4000 • Mode: ESI+ • Experiment: MRM (multiple reaction monitoring) • Transitions: KX2-391: m/z 432.4→114.2 (Rt=3.11 minute) • KX2-361: m/z 406.1→253.2 (Rt=3.33 minute)
# K562 (CML) = test: growth inhibition (BrdU), K562; assay type: cell-based, Human; conditions: Homo sapiens, K562, K562, BrdU, T=72
# Text: as §1
# [2] = test system: PDGF receptor tyrosine kinase Y572/574; test: PDGF receptor autophosphorylation in cells; assay type: cell-based; conditions: c-Src527F/NIH-3T3 cells
# Procedure: HT29 (colon cancer) and c-Src527F/NIH-3T3 (Src transformed) cell lines were treated with KX2-391 or with AstraZeneca's ATP competitive Src inhibitor AZ28. AZ28 serves as a positive comparator to show what a validated Src inhibitor should do in these assays. After treatment with compound, cells were lysed, subjected to PAGE and probed with a battery of antibodies. […] In addition, off-target protein phosphorylation was also investigated. Further, induction of apoptosis was evaluated via Caspase 3 cleavage. Multiple doses of each compound were tested because the trends in response to increasing drug concentration are the most reliable indicator of activity.
# The same range of multiples of the GI50 for AZ28 in these two cell lines was run as a comparison.
# This is thought not to be a direct Src substrate in cells.
# HT29 cell line = test: BrdU cell growth inhibition, HT29; assay type: cell-based, human; conditions: Homo sapiens, read-out: GI50
# Summary of the method: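 HT29 colon carcinoma cells treated with compounds diluted from 20 mM DMSO stocks into DMEM/10% FBS. Proliferation read as colorimetric BrdU incorporation ELISA; GI calculated relative to untreated cells at time 0 and control cells at day n, with GI50 extrapolated. Net cell loss below time-0 level scored as cytotoxicity.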
# c-Src 3T3 cells = test: BrdU cell growth inhibition, c-Src 3T3; assay type: cell-based, mouse; conditions: Mus musculus; c-Src 3T3 (c-Src527F/NIH3T3) cells; read-out: GI50
# Summary of the method: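 c-Src 3T3 cells on poly-D-lysine plates in DMEM with 2% FBS, L-glutamine, pyruvate and 10 mM HEPES. Compounds came from 20 mM DMSO stocks diluted in DMEM/10% FBS. Proliferation was read by colorimetric BrdU-incorporation ELISA, and GI50 was extrapolated from growth relative to time-zero and untreated controls.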
# [3] = male, CD-1, mouse, single oral dose 10 mg/kg
# [4] = male, CD-1, mouse, single oral dose 50 mg/kg
structure (smiles),measurement,setting,value
O=C(Cc1ccc(-c2ccc(OCCN3CCOCC3)cc2)cn1)NCc1ccccc1 [KX2-391],GI50,MDA231 (Breast),19.8 nM
same,AUClast,[1]; single oral dose 10 mg/kg,631 ng·h/g
same,AUClast,[1]; single oral dose 50 mg/kg,4211 ng·h/g
same,"KX2-391 Brain Concentrations, Group A","[1]; Male CD-1 mice, single PO dose 50 mg/kg (Group 4), 0 hr, Group A",BLQ (BLQ: Below Limit of Quantitation (1 ng/mL))
same,"KX2-391 Brain Concentrations, Group B","[1]; Male CD-1 mice, single PO dose 50 mg/kg (Group 4), 0 hr, Group B",BLQ (BLQ: Below Limit of Quantitation (1 ng/mL))
same,"KX2-391 Brain Concentrations, Group C","[1]; Male CD-1 mice, single PO dose 50 mg/kg (Group 4), 0 hr, Group C",BLQ (BLQ: Below Limit of Quantitation (1 ng/mL))
same,Kp,[1]; [3],0.42
same,Kp,[1]; [4],0.39
same,concentration at 0.5 h,"[1]; male, CD-1, mouse, brain, po, 10 mg/kg, single PO dose 10 mg/kg (Group 1), 0.5 hr, read-out: Brain Concentrations, Group A, B, C",398 ng/g
same,concentration at 0.5 h,"[1]; male, CD-1, mouse, brain, po, 10 mg/kg, single PO dose 10 mg/kg (Group 1), 0.5 hr, read-out: Brain Concentrations, Mean",398 ng/g
same,concentration at 1 h,"[1]; male, CD-1, mouse, brain, po, 10 mg/kg, single PO dose 10 mg/kg (Group 1), 1 hr, read-out: Brain Concentrations, Mean",170 ng/g
same,concentration at 2 h,"[1]; male, CD-1, mouse, brain, po, 10 mg/kg, single PO dose 10 mg/kg (Group 1), 2 hr, read-out: Brain Concentrations, Group A, B, C",126 ng/g
same,concentration at 2 h,"[1]; male, CD-1, mouse, brain, po, 10 mg/kg, single PO dose 10 mg/kg (Group 1), 2 hr, read-out: Brain Concentrations, Mean",98.5 ng/g
same,concentration at 5 h,"[1]; male, CD-1, mouse, brain, po, 10 mg/kg, single PO dose 10 mg/kg (Group 1), 5 hr, read-out: Brain Concentrations, Group A, B, C",67.7 ng/g
same,concentration at 5 h,"[1]; male, CD-1, mouse, brain, po, 10 mg/kg, single PO dose 10 mg/kg (Group 1), 5 hr, read-out: Brain Concentrations, Mean",71.4 ng/g
same,concentration at 0 hr,"[1]; male, CD-1, mouse, brain, po, 50 mg/kg, Male CD-1 mice, single PO dose 50 mg/kg (Group 4), 0 hr, Mean, read-out: KX2-391 Brain Concentrations, Mean",0 ng/g
same,concentration at 0.5 hr,"[1]; male, CD-1, mouse, brain, po, 50 mg/kg, Male CD-1 mice, single PO dose 50 mg/kg (Group 4), 0.5 hr, Group A, read-out: KX2-391 Brain Concentrations, Group A",960 ng/g
same,concentration at 0.5 hr,"[1]; male, CD-1, mouse, brain, po, 50 mg/kg, Male CD-1 mice, single PO dose 50 mg/kg (Group 4), 0.5 hr, Group B, read-out: KX2-391 Brain Concentrations, Group B",2120 ng/g
same,concentration at 0.5 hr,"[1]; male, CD-1, mouse, brain, po, 50 mg/kg, Male CD-1 mice, single PO dose 50 mg/kg (Group 4), 0.5 hr, Group C, read-out: KX2-391 Brain Concentrations, Group C",1050 ng/g
same,concentration at 0.5 hr,"[1]; male, CD-1, mouse, brain, po, 50 mg/kg, Male CD-1 mice, single PO dose 50 mg/kg (Group 4), 0.5 hr, Mean, read-out: KX2-391 Brain Concentrations, Mean",1380 ng/g
same,concentration at 1 hr,"[1]; male, CD-1, mouse, brain, po, 50 mg/kg, Male CD-1 mice, single PO dose 50 mg/kg (Group 4), 1 hr, Group A, read-out: KX2-391 Brain Concentrations, Group A",851 ng/g
same,concentration at 1 hr,"[1]; male, CD-1, mouse, brain, po, 50 mg/kg, Male CD-1 mice, single PO dose 50 mg/kg (Group 4), 1 hr, Group B, read-out: KX2-391 Brain Concentrations, Group B",1890 ng/g
same,concentration at 1 hr,"[1]; male, CD-1, mouse, brain, po, 50 mg/kg, Male CD-1 mice, single PO dose 50 mg/kg (Group 4), 1 hr, Group C, read-out: KX2-391 Brain Concentrations, Group C",549 ng/g
same,concentration at 1 hr,"[1]; male, CD-1, mouse, brain, po, 50 mg/kg, Male CD-1 mice, single PO dose 50 mg/kg (Group 4), 1 hr, Mean, read-out: KX2-391 Brain Concentrations, Mean",1100 ng/g
same,concentration at 2 hr,"[1]; male, CD-1, mouse, brain, po, 50 mg/kg, Male CD-1 mice, single PO dose 50 mg/kg (Group 4), 2 hr, Group A, read-out: KX2-391 Brain Concentrations, Group A",414 ng/g
same,concentration at 2 hr,"[1]; male, CD-1, mouse, brain, po, 50 mg/kg, Male CD-1 mice, single PO dose 50 mg/kg (Group 4), 2 hr, Group B, read-out: KX2-391 Brain Concentrations, Group B",986 ng/g
same,concentration at 2 hr,"[1]; male, CD-1, mouse, brain, po, 50 mg/kg, Male CD-1 mice, single PO dose 50 mg/kg (Group 4), 2 hr, Group C, read-out: KX2-391 Brain Concentrations, Group C",874 ng/g
same,concentration at 2 hr,"[1]; male, CD-1, mouse, brain, po, 50 mg/kg, Male CD-1 mice, single PO dose 50 mg/kg (Group 4), 2 hr, Mean, read-out: KX2-391 Brain Concentrations, Mean",758 ng/g
same,concentration at 5 hr,"[1]; male, CD-1, mouse, brain, po, 50 mg/kg, Male CD-1 mice, single PO dose 50 mg/kg (Group 4), 5 hr, Group A, read-out: KX2-391 Brain Concentrations, Group A",122 ng/g
same,concentration at 5 hr,"[1]; male, CD-1, mouse, brain, po, 50 mg/kg, Male CD-1 mice, single PO dose 50 mg/kg (Group 4), 5 hr, Group B, read-out: KX2-391 Brain Concentrations, Group B",260 ng/g
same,concentration at 5 hr,"[1]; male, CD-1, mouse, brain, po, 50 mg/kg, Male CD-1 mice, single PO dose 50 mg/kg (Group 4), 5 hr, Group C, read-out: KX2-391 Brain Concentrations, Group C",239 ng/g
same,concentration at 5 hr,"[1]; male, CD-1, mouse, brain, po, 50 mg/kg, Male CD-1 mice, single PO dose 50 mg/kg (Group 4), 5 hr, Mean, read-out: KX2-391 Brain Concentrations, Mean",207 ng/g
same,concentration at 0.5 h,"[1]; male, CD-1, mouse, brain, po, 50 mg/kg, single PO dose 50 mg/kg (Group 2), 0.5 hr, read-out: Brain Concentrations, Group A, B, C",2800 ng/g
same,concentration at 0.5 h,"[1]; male, CD-1, mouse, brain, po, 50 mg/kg, single PO dose 50 mg/kg (Group 2), 0.5 hr, read-out: Brain Concentrations, Mean",3690 ng/g
same,concentration at 1 h,"[1]; male, CD-1, mouse, brain, po, 50 mg/kg, single PO dose 50 mg/kg (Group 2), 1 hr, read-out: Brain Concentrations, Group A, B, C",946 ng/g
same,concentration at 1 h,"[1]; male, CD-1, mouse, brain, po, 50 mg/kg, single PO dose 50 mg/kg (Group 2), 1 hr, read-out: Brain Concentrations, Mean",788 ng/g
same,concentration at 2 h,"[1]; male, CD-1, mouse, brain, po, 50 mg/kg, single PO dose 50 mg/kg (Group 2), 2 hr, read-out: Brain Concentrations, Group A, B, C",613 ng/g
same,concentration at 2 h,"[1]; male, CD-1, mouse, brain, po, 50 mg/kg, single PO dose 50 mg/kg (Group 2), 2 hr, read-out: Brain Concentrations, Mean",610 ng/g
same,concentration at 5 h,"[1]; male, CD-1, mouse, brain, po, 50 mg/kg, single PO dose 50 mg/kg (Group 2), 5 hr, read-out: Brain Concentrations, Mean",370 ng/g
same,Cmax,[1]; [3],398 ng/g
same,Tmax,[1]; [3],30 min
same,Cmax,[1]; [4],3690 ng/g
same,Tmax,[1]; [4],30 min
same,"Brain Concentrations, Group A, B, C","[1]; single PO dose 10 mg/kg (Group 1), 0.5 hr, 10 mg/kg",509.00 ng/g and 286.70 ng/g
same,"Brain Concentrations, Group A, B, C","[1]; single PO dose 10 mg/kg (Group 1), 2 hr, 10 mg/kg",84.04 ng/g and 85.88 ng/g
same,"Brain Concentrations, Group A, B, C","[1]; single PO dose 10 mg/kg (Group 1), 5 hr, 10 mg/kg",75.21 ng/g and 71.22 ng/g
same,"Brain Concentrations, Group A, B, C","[1]; single PO dose 50 mg/kg (Group 2), 0.5 hr, 50 mg/kg",3190.42 ng/g and 5089.32 ng/g
same,"Brain Concentrations, Group A, B, C","[1]; single PO dose 50 mg/kg (Group 2), 1 hr, 50 mg/kg",936.29 ng/g and 482.22 ng/g
same,"Brain Concentrations, Group A, B, C","[1]; single PO dose 50 mg/kg (Group 2), 2 hr, 50 mg/kg",530.41 ng/g and 684.97 ng/g
same,GI50,K562 (CML),10.9 nM
same,PDGF receptor Y572/574 autophosphorylation,[2],Some effect
same,GI50,"HT29 cell line; HT-29, HT29 (Colon) cells",23 nM
same,GI50,"HT29 cell line; HT-29, HT-29, BrdU, T=72",15.4 nM
same,GI50,c-Src 3T3 cells,13 nM
